The values that follow come from US10835519B2, “Targeting metabolic adaptive responses to chemotherapy” (University of Cincinnati, priority 2012, dated 2020).

Entries after “also recorded” stand apart in the source; their conditions may differ.

Series [1] relates to BCR-ABL+ FL5.12 cells. The series is described as follows: Viability by propidium iodide exclusion (flow cytometer). The format is cell-based. The note with it: for viability (cell death): 22 hours, FIG. 12. How it is done: BCR-ABL^+ FL5.12 cells were cultured in cytokine-free medium containing either 0.2 mM glucose (“low glucose”; -Glucose) or 10 mM glucose (“high glucose”, +Glucose) for 48 hours. The mean viability and standard deviation were determined by propidium iodide exclusion in a FACSAria flow cytometer (BD). Cells were washed three times in PBS and resuspended at a concentration of 2×10^5 per mL in media supplemented with 2 μg/mL of propidium iodide (Molecular Probes) prior to analysis. For the viability analysis of BCL-ABL^+ primary bone marrow cells, viability was measured after withdrawal from cytokines for five (5) days in high glucose or low glucose media. Methods used for culturing cells and measuring viability are described above and below.
Fatty acid oxidation inhibition via ST247, an inverse agonist that inhibits PPARδ activity, was examined. BCR-ABL-expressing FL5.12 cells were pretreated with vehicle control or 20 nM rapamycin overnight. Cells were cultured for 22 hours in complete medium lacking IL-3 and glucose, supplemented with the indicated treatments (vehicle, 0.5 μM ST247, 1 μM ST247, or 5 μM ST247). Viability was measured in three technical replicates by propidium iodide (PI) exclusion using a flow cytometer. […] The effect was dose dependent, with lesser concentrations resulting in little effect in rapamycin-treated cells.
In order to investigate the metabolic switch as glycolysis declines, BCR-ABL-expressing FL5.12 cells were pretreated with vehicle control or 20 nM rapamycin overnight. Cells were then cultured in complete medium lacking IL-3 with 100 μM glucose (a limiting concentration) for 46 hours, supplemented with either vehicle control or 5 μM ST247. Viability was measured in three technical replicates by PI exclusion in a flow cytometer.
BCR-ABL-expressing FL5.12 cells were pretreated with vehicle control or 20 nM rapamycin overnight. Cells were then cultured in complete medium lacking IL-3 with 50 μM glucose for 48 hours, supplemented with the indicated treatments (vehicle, 1 μM GW6471, 10 μM GW7647, or 5 μM ST247). Viability was measured in three technical replicates by PI exclusion in a flow cytometer.

Another series relates to Akt. The series is described as follows: Akt phosphorylation immunoblot in BCR-ABL+ FL5.12 cells. The format is cell-based, murine. Conditions: rebound after S6K1 knockdown; FIG. 5A. The protocol:
Although Akt activation has been previously associated with glucose-dependent survival (see FIG. 4A), rebound activation of Akt was tested for association with increased survival in BCR-ABL^+ cells cultured under low glucose conditions. […] Inactivation of mTORC1 and S6K1 can trigger increases in the activity of Akt and other upstream kinases, due to knockdown or loss of feedback regulation.
Rapamycin treatment can induce rebound Akt activation in short-term cultures, but long term treatment can suppress Akt activation by the upstream kinase mTORC2. See, e.g., Sarbassov, et al., (2006) Mol Cell 22:159-68.

Series [2] has as its system BCR-ABL+ K562 cells. Briefly: Viability by propidium iodide exclusion. Type of series: cell-based, human. Conditions: full glucose; FIG. 10; not as strong as S6K1 knockdown with etomoxir.
Series [3] has as its system BCR-ABL+ FL5.12 cells. Briefly: Fatty acid oxidation, 3H release from 3H-palmitate. The note with it: etomoxir, upon S6K1 inactivation; FIG. 7A. Type of series: cell-based, murine. The protocol: (§1) The rate of ^3H release from ^3H-palmitate was used to measure FAO. The ^3H-palmitate was adopted from Djouadi, et al., (2003) Mol Genet Metab 78:112-8. Between approximately 0.5×10^6 and approximately 1.0×10^6 cells were washed with PBS, then cultured with approximately 400 μL of (9,10-^3H) palmitate:albumin for approximately 4 hours at approximately 37 degrees C. After incubation, approximately 10% TCA was added to each tube and centrifuged at approximately 3300 rpm for approximately 10 min at approximately 4 degrees C. before being mixed with 6N NaOH and applied to ion-exchange columns. Each column was washed with approximately 1 mL of water and the eluates were counted using a scintillation counter.

In a further series the test system is BCR-ABL+ KBM7 cells. Briefly: Fatty acid oxidation, 3H release from 3H-palmitate. Type of series: cell-based, human. The note with it: etomoxir and/or rapamycin; FIG. 7C. How it is done: as §1
Series [4] deals with BCR-ABL+ K562 cells. The series is described as follows: Fatty acid oxidation, 3H release from 3H-palmitate. Conditions: etomoxir and/or rapamycin; FIG. 7B. Type of series: cell-based, human. How it is done:
as §1

The test system of another series is S6K1. The series is described as follows: Ribosomal protein S6 phosphorylation as readout of S6K1 activity. The format is cell-based. Conditions: imatinib 1.5 μM. How it is done:
In particular, vector control and BCR-ABL^+ cells were cultured for three (3) hours in the absence of growth factor, then restimulated for thirty (30) minutes for analysis of S6K1 phosphorylation at T389 and the phosphorylation of ribosomal protein S6 at serines 235/236.
Small ribosomal protein S6 (pS^6) phosphorylation was measured.

As for `CCC(=O)NC[C@H](Cc1ccc(OCCc2nc(-c3ccccc3)oc2C)cc1)N/C(C)=C\C(=O)c1ccc(C(F)(F)F)cc1` [GW6471, N-((2S)-2-(((1Z)-1-Methyl-3-oxo-3-(4-(trifluoromethyl)phenyl)prop-1-enyl)amino)-3-(4-(2-(5-methyl-2-phenyl-1,3-oxazol-4-yl)ethoxy)phenyl)propyl)propanamide], the “viability (restoring apoptosis)” value in the series on BCR-ABL+ FL5.12 cells [1] (1 μM GW6471, 20 nM rapamycin pretreated, 50 μM glucose, 48 hours, FIG. 14) is “somewhat effective in restoring apoptosis”.

Regarding `Cn1c(=O)n(-c2ccc(C(C)(C)C#N)cc2)c2c3cc(-c4cnc5ccccc5c4)ccc3ncc21` [BEZ235], the glucose-independent survival entry in the series on BCR-ABL+ FL5.12 cells [1] (S6K1 inactivation (knockdown) plus BEZ235, low glucose, FIG. 5B) is “did not prevent glucose-independent survival”. Moreover, the “Akt activation (phosphorylation at serine 473)” value in the series with Akt is reported as “prevented the increase in Akt activation”.

`CCOC(=O)[C@@]1(CCCCCCOc2ccc(Cl)cc2)CO1` [etomoxir]: the “cytotoxicity of etomoxir in the presence of rapamycin” value with BCR-ABL+ K562 cells [2] was “enhanced cytotoxicity”. For the same molecule, the “3H release from 3H-palmitate (FAO)” value with BCR-ABL+ FL5.12 cells [3], in the series on BCR-ABL+ KBM7 cells and in the series on BCR-ABL+ K562 cells [4] was “reduced ^3H release” in each case. The “apoptosis, combination with S6K1 knockdown” value in the series with BCR-ABL+ FL5.12 cells [1] (200 μM etomoxir plus S6K1 knockdown, full glucose, approximately 48 hours, FIG. 9A) was “induced significant apoptosis”. The “cytotoxicity as a single agent” value in the series with BCR-ABL+ FL5.12 cells [1] (200 μM etomoxir, full glucose, approximately 48 hours, FIG. 9A) is given as “mild cytotoxic effect”. In addition, the “cell death in response to etomoxir, dose curve with S6K1 knockdown” value in the series on BCR-ABL+ FL5.12 cells [1] (etomoxir about 200 μM to about 300 μM, full glucose, FIG. 9B) is on record as “enhanced cell death”. In addition, in the series with BCR-ABL+ FL5.12 cells [1] (low glucose, etomoxir added, FIG. 8B), the “cell survival mediated by AICAR” value was “prevented cell survival”. Besides, in the series with BCR-ABL+ FL5.12 cells [1] (low glucose, presence of etomoxir, FIG. 8A, 8B), the “survival of S6K1 knockdown cells” value is listed as “prevented the survival; also recorded: prevented cell survival”.

As to `CCCCCCNc1ccc(NS(=O)(=O)c2ccsc2C(=O)OC)c(OC)c1` [ST247], the “viability (cell death)” value was “triggered substantial cell death” in the series on BCR-ABL+ FL5.12 cells [1] (5 μM ST247, 20 nM rapamycin pretreated overnight, no IL-3, no glucose) and “little effect” in the series on BCR-ABL+ FL5.12 cells [1] (lesser concentrations of ST247 (0.5 μM, 1 μM), rapamycin-treated, no glucose). Moreover, the “viability (restoring apoptosis)” value in the series on BCR-ABL+ FL5.12 cells [1] (5 μM ST247, 20 nM rapamycin pretreated, 50 μM glucose, 48 hours, FIG. 14) is recorded as “restoring apoptosis”. The “viability (survival advantage)” value in the series with BCR-ABL+ FL5.12 cells [1] (5 μM ST247, 20 nM rapamycin pretreated, 100 μM glucose, 46 hours, FIG. 13) is “counteracted the survival advantage induced by rapamycin”.

Consider `CC(C)(Sc1ccc(CCN(CCCCC2CCCCC2)C(=O)NC2CCCCC2)cc1)C(=O)O` [GW7647], for which, in the series on BCR-ABL+ FL5.12 cells [1] (10 μM GW7647, vehicle-control treated cells, 50 μM glucose, 48 hours, FIG. 14), the viability result is “undesired increase in viability”.

On to `Cc1ccc(NC(=O)c2ccc(CN3CCN(C)CC3)cc2)cc1Nc1nccc(-c2cccnc2)n1` [imatinib], for which, in the series with S6K1, the “S6K1 activity (phosphorylation of pS6)” value was “reduced S6K1 activity”.

As for `NC(=O)c1ncn([C@@H]2O[C@H](CO)[C@@H](O)[C@H]2O)c1N` [AICAR, 5-aminoimidazole-4-carboxamide 1-β-D-ribofuranoside], the glucose-independent survival entry in the series on BCR-ABL+ FL5.12 cells [1] (AICAR, low glucose, level similar to S6K1 knockdown, FIG. 8B) is given as “triggered glucose-independent survival”.
